PMC9354638, “Targeting p21-activated kinase 4 (PAK4) with pyrazolo[3,4-d]pyrimidine derivative SPA7012 attenuates hepatic ischaemia-reperfusion injury in mice” (Journal of Enzyme Inhibition and Medicinal Chemistry, 2022)
“Also recorded” adds a separate entry of the source.

Tested on: C57BL/6 male mice with hepatic I/R injury
Test: Model of partial hepatic I/R injury in mice
Type: in vivo, mouse
Experimental: Pathogen-free 8 to 10-week old C57BL/6 male mice (Orient Bio, Seoul, Korea) were kept under a 12-h light/dark cycle with controlled humidity of 50% at 22 °C, and had free access to food and water. Hepatic I/R injury was created using the following method.[15] Mice were anaesthetised with ketamine (100 mg/kg) and xylazine (10 mg/kg) by intraperitoneal injection. A midline incision was performed, and an atraumatic clip was placed across the portal vein, hepatic artery, and bile duct just above the right branch. Blood flow was interrupted to the left lateral and median lobes, which represent approximately 70% of the total blood supply to the liver. The liver was kept moist with a gauze soaked in saline, and body temperature was maintained at 37 °C with a warm blanket throughout ischaemia. After 60 min of partial hepatic ischaemia, the clip was removed to initiate reperfusion. The sham mice underwent the same operation without vascular occlusion. After the desired time period of reperfusion, the mice were euthanised by exsanguination under anaesthesia and serum samples were collected. The left lateral and median lobes of the liver were collected and stored at −80 °C until further analysis, or were immediately fixed in 10% formalin. All animal experiments were performed in accordance with the Guide for the Care and Use of Laboratory Animals published by the US National Institutes of Health (NIH Publication No. 85–23, revised 2011). The study protocol was approved by the Institutional Animal Care and Use Committee of Jeonbuk National University (permit number: JBNU-2019–00122).
Alanine aminotransferase (ALT) and aspartate aminotransferase (AST) in serum (Asan Pharm, Seoul, Korea), glutathione (GSH, Arbour Assays, Ann Arbour, MI, USA), malondialdehyde (MDA, ab118970, Abcam, Cambridge, UK) in liver tissues, and lactate dehydrogenase (LDH, Biovision, Milpitas, CA, USA) in culture medium were analysed using specific kits. Serum levels of IL-1β, IL-6, TNF-α, and CCL-2 were detected using ELISA kits (all from Invitrogen).
Total RNA was extracted from frozen liver tissues or primary hepatocytes using TRIzol reagent (Invitrogen). RNA was treated with isopropanol, dried using 70% ethanol, and dissolved in diethyl pyrocarbonate-treated distilled water. First-strand cDNA was generated using the random hexamer primer provided in the first-strand cDNA synthesis kit (Applied Biosystems, Foster City, CA, USA). Specific primers were designed using PrimerBank (https://pga.mgh.harvard.edu/primerbank, Table 1). qPCR reactions were performed in a final volume of 10μ L containing 10 ng reverse-transcribed total RNA, 200 nM forward and reverse primers, and PCR master mixture. qPCR was performed in 384-well plates using an ABI Prism™ 7900HT Sequence Detection System (Applied Biosystems).
Nuclear and cytoplasmic fractions were prepared using the NE-PER Nuclear and Cytoplasmic Extraction kit (Thermo Fisher Scientific, Waltham, MA, USA). Tissue homogenates or cell lysates (15 μg) were separated by 6–14% SDS-PAGE and transferred to PVDF membranes. After blocking with 5% skim milk, blots were probed with primary antibodies against: PAK4 (G222), p-PAK4 (S474), p-IKKβ (S176/180), p-IκBα (S32), p-p65 (S536), cleaved caspase-3 (Asp175), Bax (Cell Signalling Technology, Beverly, MA, USA), GAPDH (A531), lamin B1(L75), Bcl2(P65), NQO1 (F252) (Bioworld Technology, St Louis Park, MN, USA), NF-κB p65 (C-20), IKBα (H-4), IKKβ (10A9B6) (Santa Cruz Biotechnology, Dallas, TX, USA), Nrf2 (Proteintech, Rosemont, IL, USA), HO-1 (Enzo Life Sciences, Farmingdale, New York, USA), and p-Thr (Merck KGaA, Darmstadt, Germany). For co-immunoprecipitations, 600 μg protein was incubated with anti-Nrf2 antibodies (Proteintech, Sankt Leon-Rot, Germany) overnight at 4 °C followed by protein G agarose for 2 h at 4 °C. Blots were probed with antibodies against PAK4, Nrf2, or p-Thr. Immunoreactive bands were detected with a Las-4000 imager (GE Healthcare Life Science, Pittsburgh, PA, USA). […]

[1] = 50 mg/kg intraperitoneal before and during I/R, 1 h ischaemia, 6 h or 24 h reperfusion, vs I/R group

## Cc1nn(-c2cccc(C#CC3(O)CCCCC3)c2)c2ncnc(N)c12 [Compound 14b, 3-(4-Amino-3-methylpyrazolo[3,4-d]pyrimidin-1-yl)phenylethynylcyclohexan-1-ol]
[1]
  Serum ALT level: significantly decreased
  Serum AST level: significantly decreased
50 mg/kg, 24 h after reperfusion, listed as SPA7012
  Inflammatory cell infiltration (F4/80-positive macrophages, Ly6G-positive neutrophils) in liver: decreased; also recorded: drastic reduction
50 mg/kg, I/R injured mice
  Cytokine production (TNF-α, IL-1β, IL-6, CCL-2; serum protein and liver mRNA): decreased
50 mg/kg, Western blotting
  Phosphorylation levels of IKKβ and p65 in liver: substantially decreased
  Protein levels of IκBα in liver: increased
50 mg/kg, Western blotting of nuclear extracts, listed as SPA7012
  Nuclear level of Nrf2 in I/R injured liver tissues: considerably increased
50 mg/kg, vs I/R group
  4-HNE-positive cells in liver tissues: significantly lower
  Area of necrosis in liver (H&E): significantly smaller
  Hepatic levels of GSH: significantly higher
  MDA level: significantly lower
  TUNEL-positive apoptotic cells in liver tissues: significant reduction
Following SPA7012 treatment, data not shown
  Total- and phospho-protein levels of PPARγ, PTEN, Akt, and GSK-3β: no changes
